Structures can show the parent of a compound that is named as a salt.
Legend:
Assay type in all cases: biochemical
[1] = target: mu opioid receptor (MOR) (Homo sapiens, UniProt P35372); test: GTP-γ-S binding assay (SPA), antagonist mode, mu; conditions: antagonism of agonist DAMGO 1 micromolar; membranes; Kb by Cheng-Prusoff equation; read-out: In Vitro Antagonism GTP-γ-S Kb (nM) Mu
Procedure: (§1) A scintillation proximity assay (SPA)-based GTP-γ-S^35 assay format was developed based on previous opioid (Emmerson et al., J. Pharm Exp Ther 278, 1121, 1996; Horng et al., Society for Neuroscience Abstracts, 434.6, 2000) and muscarinic (DeLapp et al., JPET 289, 946, 1999) assay formats. Membranes were resuspended in 20 mM HEPES, 100 mM NaCl, 5 mM MgCl2, 1 mM DTT, and 1 mM EDTA. […] of GTP-γ-[35S], compound, membrane suspension (20 microgram/well), and wheat germ agglutinin coated SPA beads (1 mg/well) were added to clear bottom 96 well assay plates. GDP ([…]) was added to the membrane solution prior to addition to the assay plates. Plates were sealed and incubated for four hours at room temperature then placed in a refrigerator overnight to allow the beads to settle. Signal stability at 4° C. was determined to be >60 hours. Plates were warmed to room temperature and counted in a Wallac Microbeta scintillation counter. For antagonist assays, specific agonists were added at the following concentrations: (MOR) DAMGO 1 micromolar, (DOR) DPDPE 30 nM, (KOR) US69593 300 nM. Kb's were determined by Cheng-Prusoff equation (see Cheng and Prusoff, Biochem. Pharmacol. 22, 3099 1973).

[2] = target: kappa opioid receptor (KOR) (Homo sapiens, UniProt P41145); test: GTP-γ-S binding assay (SPA), antagonist mode, kappa; conditions: antagonism of agonist US69593 300 nM; membranes; Kb by Cheng-Prusoff equation; read-out: In Vitro Antagonism GTP-γ-S Kb (nM) Kappa
kappa opioid receptor (KOR), sequence (P41145 whole entry): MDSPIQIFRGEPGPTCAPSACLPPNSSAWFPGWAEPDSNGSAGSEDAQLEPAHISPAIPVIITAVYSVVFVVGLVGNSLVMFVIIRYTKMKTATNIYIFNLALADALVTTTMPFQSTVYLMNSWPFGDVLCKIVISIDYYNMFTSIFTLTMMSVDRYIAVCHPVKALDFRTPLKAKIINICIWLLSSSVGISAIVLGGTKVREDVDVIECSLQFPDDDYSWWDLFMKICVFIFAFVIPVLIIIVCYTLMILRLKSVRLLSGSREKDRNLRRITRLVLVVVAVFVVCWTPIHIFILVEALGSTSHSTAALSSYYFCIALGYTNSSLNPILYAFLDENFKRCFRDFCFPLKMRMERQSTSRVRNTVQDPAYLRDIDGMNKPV
Procedure: as §1

[3] = target: delta opioid receptor (DOR) (Homo sapiens, UniProt P41143); test: GTP-γ-S binding assay (SPA), antagonist mode, delta; conditions: antagonism of agonist DPDPE 30 nM; membranes; Kb by Cheng-Prusoff equation; read-out: In Vitro Antagonism GTP-γ-S Kb (nM) Delta
delta opioid receptor (DOR), sequence (P41143 whole entry): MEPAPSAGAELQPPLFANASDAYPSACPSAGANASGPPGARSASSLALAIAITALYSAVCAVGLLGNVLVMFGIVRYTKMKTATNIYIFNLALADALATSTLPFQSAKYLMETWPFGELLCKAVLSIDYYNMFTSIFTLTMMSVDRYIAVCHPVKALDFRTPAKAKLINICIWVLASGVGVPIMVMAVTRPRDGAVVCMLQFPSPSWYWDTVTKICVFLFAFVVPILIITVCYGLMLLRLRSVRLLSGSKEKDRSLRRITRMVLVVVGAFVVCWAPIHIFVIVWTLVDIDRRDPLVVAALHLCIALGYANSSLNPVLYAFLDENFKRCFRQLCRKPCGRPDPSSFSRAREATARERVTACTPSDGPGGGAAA
Procedure: as §1

mu opioid receptor (MOR), sequence (P35372 whole entry): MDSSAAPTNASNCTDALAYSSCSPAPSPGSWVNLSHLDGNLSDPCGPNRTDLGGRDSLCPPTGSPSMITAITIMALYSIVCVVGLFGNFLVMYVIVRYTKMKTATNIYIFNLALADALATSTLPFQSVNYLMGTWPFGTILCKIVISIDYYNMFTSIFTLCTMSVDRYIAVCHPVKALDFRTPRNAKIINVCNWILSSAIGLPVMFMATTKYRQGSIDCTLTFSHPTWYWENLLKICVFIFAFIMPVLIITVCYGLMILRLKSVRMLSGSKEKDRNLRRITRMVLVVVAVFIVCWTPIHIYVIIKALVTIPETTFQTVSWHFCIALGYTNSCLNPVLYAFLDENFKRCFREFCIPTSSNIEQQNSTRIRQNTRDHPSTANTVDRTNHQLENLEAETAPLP

SMILES	Kb [1]	Kb [2]	Kb [3]
NC(=O)c1ccc(Oc2ccc(CNCCc3ccccc3)s2)cc1 [Example 1, 4-[5-(Phenethylamino-methyl)-thiophen-2-yloxy]-benzamide]	0.6 nM	4.6 nM	3.3 nM
COc1cc(C(N)=O)ccc1Oc1ccc(CNCCc2ccccc2)s1 [Example 7, 3-Methoxy-4-[5-(phenethylamino-methyl)-thiophen-2-yloxy]-benzamide hydrochloride]	0.3 nM	4 nM	1.3 nM
NC(=O)c1ccc(Oc2ccc(CNCCc3cccc(F)c3)s2)cc1 [Example 3, 4-(5-{[2-(3-Fluoro-phenyl)-ethylamino]-methyl}-thiophen-2-yloxy)-benzamide]	0.6 nM	3.9 nM	1.6 nM
COc1cc(C(N)=O)ccc1Oc1ccc(CNCCC(C)C)s1 [Example 8, 3-Methoxy-4-{5-[(3-methyl-butylamino)-methyl]-thiophen-2-yloxy}-benzamide hydrochloride]	4.7 nM	3.2 nM	40.5 nM
CC(C)CCNCc1ccc(Oc2ccc(C(N)=O)cc2)s1 [Example 2, 4-{5-[(3-Methyl-butylamino)-methyl]-thiophen-2-yloxy}-benzamide]	3.7 nM	2.2 nM	19.4 nM
NC(=O)c1ccc(Oc2ccc(CNCCc3cccs3)s2)cc1 [Example 5, 4-{5-[(2-Thiophen-2-yl-ethylamino)-methyl]-thiophen-2-yloxy}-benzamide]	0.6 nM	1.4 nM	2.4 nM
CC(C)(C)CCNCc1ccc(Oc2ccc(C(N)=O)cc2)s1 [Example 6, 4-{5-[(3,3-Dimethyl-butylamino)-methyl]-thiophen-2-yloxy}-benzamide]	5.7 nM	–	13.7 nM
NC(=O)c1ccc(Oc2ccc(CNCCC3CCCC3)s2)cc1 [Example 4, 4-{5-[(2-Cyclopentyl-ethylamino)-methyl]-thiophen-2-yloxy}-benzamide]	0.6 nM	1 nM	2.7 nM
